Experimental findings from PubChem BioAssay (NCI) are described below.

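Following 48 hours of exposure in 96-well plates, responses at five concentrations were used to interpolate endpoints linearly. The concentration for 50% growth inhibition is given as GI50. TGI: concentration producing complete growth inhibition.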

Holding throughout (test): inhibition of tumour cell growth, NCI panel, 48 h
Assay [1] relates to HOP-62 NSCLC.
In assay [2] the test system is DU-145 prostate.
The subject of assay [3] is A498 renal.
Assay [4] concerns TK-10 renal.
The test system of assay [5] is T-47D breast.
Assay [6] concerns UO-31 renal.
The subject of assay [7] is HCT-116 colon.
Assay [8] relates to KM12 colon.
Assay [9] relates to SK-MEL-2 melanoma.
Assay [10] relates to SW-620 colon.

With `COC(=O)C1=C(C(=O)OC)SC2(S1)C(C(=O)OC)=C(C(=O)OC)Sc1c2ssc1=Nc1ccc(Cl)cc1`, the TGI in assay [1] was determined as 3.36 µM; in assay [2], 1.65 µM; in [3], 3.15 µM; in assay [4] it was 2.69 µM; in assay [5], 3.45 µM; in assay [6], 2.01 µM. For the same compound, the TGI in [7] came to 1.15 µM; in assay [8] it was 2.11 µM; in [9] it was 1.36 µM.
Consider `O=C1C=CC(=O)c2c1ccc1c3ccccc3n(-c3ccccc3[N+](=O)[O-])c21`, for which the TGI in assay [1] was more than 53.7 µM; in [10], more than 100 µM; in assay [2], 18.9 µM; in [3], 35.6 µM; in [4] it was 5.89 µM; in assay [5] it was 5.19 µM. In addition, the TGI in [6] was 2.87 µM; in [7], more than 25.3 µM; in assay [8], 35.8 µM; in assay [9] it was 31.6 µM.
Turning to `O=C(c1ccc(Cl)cc1)N(C(=S)OCc1ccccn1)c1ccccc1`, the TGI in assay [1] was 75.7 µM; in [10], more than 100 µM; in [2], more than 100 µM; in assay [3], more than 100 µM; in assay [4], more than 100 µM; in assay [5], 93.5 µM. Besides, the TGI in [6], in assay [7], in assay [8] and in [9] was more than 100 µM each time.
`c1ccc2c(c1)CCc1[nH]c3c(c1-2)-c1ccccc1CC3`: the TGI in assay [1] was 58.5 µM; in assay [10], more than 100 µM; in assay [2] it was more than 100 µM; in assay [3] it was more than 100 µM; in assay [4], more than 100 µM; in assay [5] it was more than 100 µM. For the same compound, the TGI in assay [6], in [7], in assay [8] and in assay [9] was more than 100 µM each time.
With `COC(=O)[C@H](CC(C)C)Nc1c(O)c2c(c(O)c1Cl)C(=O)C=CC2=O`, the TGI in assay [1], in assay [10], in [2], in assay [3], in [4] and in assay [5] was more than 10 µM in each case. Besides, the TGI in [7] is 5.35 µM; in assay [8], more than 10 µM; in assay [9], more than 10 µM.
Take `COC(=O)C1(C(=O)OC)N=C(C)OC1/C=C/c1ccccc1` (stereo not given): the TGI in assay [1], in assay [10], in assay [2], in assay [3], in assay [4] and in assay [5] was more than 100 µM each time. Also, the TGI in assay [6], in [7], in assay [8] and in [9] was more than 100 µM in each case.
As to `COc1ccc(C(=O)/C=C/c2ccc(OCCSCCCCCCCCCCSCCOc3ccc(/C=C/C(=O)c4ccc(OC)c(OC)c4)cc3)cc2)cc1OC`, the TGI in [1], in assay [10], in assay [2], in [3], in [4] and in [5] was more than 100 µM in each case. For the same compound, the TGI in assay [7] and in assay [8] was more than 100 µM throughout.
Consider `CCOC(=O)c1[nH]cc(C)c1-c1ccc2c(-c3ccccc3)nc3ccccc3n12`, for which the TGI stood at 29.9 µM in assay [1]; 16.5 µM in [10]; 13.4 µM in [2]; 9.98 µM in assay [3]; 15.2 µM in [4]; 18.4 µM in assay [5]. For the same compound, the TGI turned out to be 14.5 µM in assay [6], 12.5 µM in [7], 13.3 µM in assay [8] and 16.8 µM in [9].
In the case of `CC1CCC2(CC1)NC1=C(CC(C)CC1)C1=C2CC(C)CC1` (stereo not given), the TGI is 37.7 µM in [10]; more than 100 µM in [2]; more than 100 µM in assay [3]; 89.2 µM in [4]; 78.6 µM in assay [5]; 51.7 µM in [6]. Moreover, the figures for the TGI in [7], in assay [8] and in assay [9] were 28 µM, 40.2 µM and 57.8 µM, respectively.
Turning to `COP(=O)(OC)C(O)CC(C)C` (stereo not given), the TGI in assay [1], in assay [10], in [2], in [3], in assay [4] and in [5] was more than 100 µM in each case. Moreover, the TGI in [6], in [7], in assay [8] and in assay [9] was more than 100 µM throughout.
For the compound `CN1CCN(Cc2ccc(NC(=O)c3cccc(C#Cc4cnc(N)c5ncccc45)c3F)cc2C(F)(F)F)CC1`, the GI50 in [1] is 1.74 µM; in assay [10] it was 0.62 µM; in assay [2] it was 0.614 µM; in assay [3], 1.59 µM; in [4] it was 5.67 µM; in assay [5], 5.78 µM. Also, the GI50 in [6] was 0.849 µM; in assay [8], 0.332 µM; in assay [9], 0.522 µM. Besides, the TGI in assay [1] came out at 8.71 µM; in assay [10], 1.71 µM; in assay [2], 1.41 µM; in [3] it was 4.61 µM; in assay [4], 12.9 µM; in assay [5], 14.8 µM. For the same compound, the TGI is 1.54 µM in assay [6], 6.51 µM in [8] and 1.94 µM in assay [9].
In the case of `CCOc1cc2oc(C)cc(=O)c2c(OC)c1C=Nc1ccc(Cn2c(C)nc3ccccc32)cc1`, the TGI in [1], in [10], in [2], in assay [3], in assay [4] and in [5] was more than 100 µM throughout. The TGI in assay [6], in [7], in assay [8] and in assay [9] was more than 100 µM in each case.
Take `CC(=O)C1=C(C)N(c2ccc(C)cc2)C2(O)C3=C(C(=O)c4ccccc4C3=O)C(O)=CC12Cl` (stereo not given): the TGI in assay [1] is more than 100 µM; in assay [10], more than 100 µM; in assay [2] it was more than 100 µM; in [3] it was 10.3 µM; in [4], 97 µM; in [5] it was 69.1 µM. Moreover, the TGI is 34.6 µM in assay [6], more than 100 µM in assay [7], 33.8 µM in assay [8] and 33 µM in assay [9].
As for `CSc1ncc2c(n1)sc1c(=O)n(-c3ccccc3)cnc12`, the TGI in assay [1], in [10], in [2], in [3], in assay [4] and in assay [5] was more than 100 µM in each case. The TGI in assay [6], in [7], in assay [8] and in assay [9] was more than 100 µM in each case.
Regarding `O=C(NCCNCCCNC(=O)c1cc(-c2ccccc2)nc2ccccc12)c1cccc(OCc2ccccc2)c1OCc1ccccc1`, the TGI is 3.01 µM in assay [1]; 3.35 µM in assay [10]; 3.26 µM in [2]; 2.98 µM in assay [3]; 3.17 µM in assay [4]; 4.2 µM in assay [5]. Moreover, the values for the TGI in [6], in [7] and in assay [8] were 3.03 µM, 3.13 µM and 3.37 µM, respectively.
Consider `COc1cc2c(cc1OCCCCOc1cc3c(cc1OC)C(=O)N1CCC[C@H]1C(=O)N3)N=C[C@@H]1CCCN1C2=O`, for which the TGI in assay [1] was determined as 44.5 µM; in assay [10], 14.6 µM; in [2], 44.3 µM; in [3], 19.9 µM; in assay [4], 27.4 µM; in assay [5], 28.7 µM. Also, the TGI in [6] was 28 µM; in assay [7], more than 100 µM; in assay [8] it was 22.2 µM; in assay [9], 20.1 µM.
As to `CCN(CC)CCNc1ccc2nnn3c4ccc(O)cc4c(=O)c1c23`, the TGI came out at 14 µM in assay [1]; 15.6 µM in assay [10]; 27.6 µM in [2]; 16 µM in assay [3]; 18.9 µM in assay [4]; 39.7 µM in assay [5]. The TGI in assay [6] was 4.06 µM; in [7] it was 15.6 µM; in [8], 12.8 µM; in assay [9] it was 25.2 µM.
On to `CCOC1Oc2ccccc2-c2nc(SC)ncc21` (stereo not given), for which the TGI in assay [10], in assay [2], in [3], in assay [4], in assay [5] and in assay [6] was more than 100 µM throughout. Further, the TGI in assay [7], in assay [8] and in assay [9] was more than 100 µM each time.
Regarding `CC1C(OC2O[C@@H]3O[C@@]4(C)CC[C@H]5[C@H](C)CC[C@@H](C2C)[C@@]35O4)O[C@@H]2O[C@@]3(C)CC[C@H]4[C@H](C)CC[C@@H]1[C@@]24O3` (stereo not given in full), the TGI in assay [1], in [10], in assay [2], in assay [3], in [4] and in [5] was more than 50 µM each time. For the same compound, the TGI in assay [7], in assay [8] and in assay [9] was more than 50 µM in each case.
As for `COC(=O)/C=C/C1(O)C=CC(=O)C=C1`, the TGI is 14.4 µM in assay [1]; 9.57 µM in assay [2]; more than 60.2 µM in assay [3]; 16.4 µM in [4]; more than 20.8 µM in [5]; 3.51 µM in assay [6]. Besides, the TGI in assay [7] was determined as 3.73 µM; in assay [8], 5.61 µM; in assay [9], 19.1 µM.
For `O=C(C/C(=N/O)c1cc(-c2ccccc2)no1)c1ccccc1`, the TGI in assay [1] is 40.2 µM; in assay [2], more than 100 µM; in assay [3] it was more than 100 µM; in assay [4], more than 100 µM; in assay [5], more than 100 µM; in [6] it was more than 100 µM. In addition, the values for the TGI in assay [7], in assay [8] and in assay [9] were 60 µM, more than 100 µM and more than 100 µM, respectively.
`COc1ccc2cc(-c3nc(N)nc(N4N=C(C)CC4(C)C)n3)c(=N)oc2c1`: the TGI is 41.6 µM in assay [1]; 32.6 µM in [2]; 82.1 µM in assay [3]; 72 µM in [4]; 38.9 µM in [5]; 55.1 µM in assay [6]. Further, the TGI in assay [7] stood at 35 µM; in assay [8], 30.6 µM; in assay [9] it was 35.7 µM.
In the case of `COc1ccc(/C=C2\CCC/C(=C\c3ccc(O)c(CN4CCCCC4)c3)C2=O)cc1`, the TGI in assay [1] was more than 56.3 µM; in assay [10] it was 28.8 µM; in assay [2] it was 36.9 µM; in assay [3], 47.1 µM; in assay [4], 52.1 µM; in assay [5], more than 73.8 µM. The TGI in [6] was found to be 39.9 µM; in assay [7] it was 13.1 µM; in [9] it was 43 µM.
In the case of `COc1ccc(C2CC3(c4ccccc4)ON=C(c4ccccc4)N3c3ccccc3S2)cc1` (stereo not given), the TGI in [1], in assay [10], in assay [2], in assay [3], in assay [4] and in [5] was more than 100 µM each time. In addition, the TGI in assay [6], in assay [7] and in assay [8] was more than 100 µM throughout.
Regarding `O=c1[nH]c(=O)n(C2OC(CO)C(O)C2O)cc1Oc1ccccc1` (stereo not given), the TGI in assay [1], in assay [10], in assay [2], in assay [3], in assay [4] and in assay [5] was more than 100 µM in each case. The TGI in [7], in assay [8] and in assay [9] was more than 100 µM each time.
As for `C=CCOC(=O)C1=C(CCC[C@@H](C)O[Si](C)(C)C(C)(C)C)N=C(N)N2[C@H](CCO)CC[C@@H]12`, the TGI in assay [1] turned out to be 27.4 µM; in [2] it was 28.6 µM; in assay [3], 35.7 µM; in [4], 34.3 µM; in [5], 28.9 µM; in assay [6] it was 29.6 µM. Also, the TGI was 28.6 µM in [7], 24.1 µM in assay [8] and 30.3 µM in assay [9].
Consider `COc1cc2c(cc1OC)C(=O)/C(=C/c1cc(OC)c(OC)c(OC)c1)C2`, for which the TGI in assay [1], in assay [2], in [3], in assay [5], in [6] and in [8] was more than 100 µM in each case. In [9], the TGI was more than 100 µM.
